Laboratory results published in patent publication US9234006B2, “Compounds” (Novacta Biosystems Limited, priority 2011, dated 2016).
Counter-ions that a name gives are not always drawn. Where a SMILES comes first, the peptide text is derived from it. Bridges are numbered along the chain shown (N, C = ends). [ ]: non-standard residue; d: D form. The star is where a group is joined. ξ: configuration not given here. ξβ3hGly(cHex) = NC(CC(=O)*)C1CCCCC1; Thr(3ξ) = CC(O)[C@H](N)C(=O)O; Dab = NCC[C@H](N)C(=O)O; Ahp = NCCCCCCC(=O)O

Assays:
[1] = parameters: species or system rats; conditions: rat, in vivo, 8 mg/kg
Experimental: Colistin and the example compounds were prepared in saline. Compounds were introduced via the jugular canula twice a day 7 hours apart for seven days. […] The dose regimen is set out in Table 8 below.

[2] = tested on: A. baumannii NCTC7844; assay: MIC susceptibility testing, broth microdilution in CaMHB; format: cell-based, Acinetobacter baumannii
Procedure, shortened: (§1)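 Colonies from fresh MHA grown overnight in CaMHB at 37° C, 250 rpm for 18-20 hours, diluted 100-fold and regrown to OD600 0.2-0.3 […]. Actively growing culture diluted 100-fold in fresh medium as inoculum; assays run in duplicate.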

[3] = tested on: A. baumannii ATCCBAA-747; assay: as above; format: cell-based, Acinetobacter baumannii
Procedure, shortened: as §1

[4] = tested on: A. baumannii NCTC13423; assay: as above; format: cell-based, Acinetobacter baumannii
Procedure, shortened: as §1

[5] = tested on: A. baumannii ATCC19606; assay: as above; format: cell-based, Acinetobacter baumannii
Procedure, shortened: as §1

[6] = tested on: P. aeruginosa ATCC27853; assay: as above; format: cell-based, Pseudomonas aeruginosa
Procedure, shortened: as §1

[7] = tested on: P. aeruginosa ATCCCRM-9027; assay: as above; format: cell-based, Pseudomonas aeruginosa
Procedure, shortened: as §1

[8] = tested on: P. aeruginosa ATCC10145; assay: as above; format: cell-based, Pseudomonas aeruginosa
Procedure, shortened: as §1

[9] = tested on: P. aeruginosa ATCC 9721; assay: as above; format: cell-based, Pseudomonas aeruginosa
Procedure, shortened: as §1

[10] = tested on: K. pneumoniae NCTC7427; assay: as above; format: cell-based, Klebsiella pneumoniae
Procedure, shortened: as §1

[11] = tested on: K. pneumoniae ATCC 4352; assay: as above; format: cell-based, Klebsiella pneumoniae
Procedure, shortened: as §1

[12] = tested on: K. pneumoniae NCTC8172; assay: as above; format: cell-based, Klebsiella pneumoniae
Procedure, shortened: as §1

[13] = tested on: K. pneumoniae ATCCBAA-1706; assay: as above; format: cell-based, Klebsiella pneumoniae; conditions: Table 4
Procedure, shortened: as §1

[14] = tested on: E. coli NCTC12900; assay: as above; format: cell-based, Escherichia coli
Procedure, shortened: as §1

[15] = tested on: E. coli ATCC25922; assay: as above; format: cell-based, Escherichia coli
Procedure, shortened: as §1

[16] = tested on: E. coli NCTC9001; assay: as above; format: cell-based, Escherichia coli; conditions: Table 4A, different batches of cation-adjusted Muller-Hinton broth
Procedure, shortened: as §1

[17] = tested on: E. coli ATCC700928; assay: as above; format: cell-based, Escherichia coli
Procedure, shortened: as §1

[18] = tested on: HK-2 cell line; conditions: 24 h incubation, resazurin reduction; Table 7A; footnote c: solubility issues noted at top concentration
Experimental: The renal cell toxicity of the compounds was assessed in an in vitro assay using the HK-2 cell line, an immortalized proximal tubule cell line derived from a normal human kidney. The endpoint to describe the toxicity of the compounds was the reduction of resazurin correlating with the metabolic activity of the cells.
Cells were cultured in 150 cm^2 flasks in 25 mL supplemented KSF (with 5 ng/mL EGF and 50 μg/mL BPE). Cells were maintained at 70% confluence with a maximum of 25 passages. Day 1: Media was removed and cells were washed with 10 ml DPBS. […] After 1 to 2 minutes incubation, 14 ml media was added to the flask to inactivate the trypsin. The cell suspension was transferred to a centrifuge tube and the cells pelleted at 1000 rpm for 6 minutes. The cell pellet was then resuspended in fresh media supplemented with EGF and BPE. […] 7500 cells were dispensed in each well in a volume of 160 μl and incubated at 37° C. for 24 h.
Day 2: Test compounds were prepared directly into the media. […] The microtiter plates were removed from the incubator and the media replaced with 100 μl of the dilutions of the compound solution. Every set of concentration was done in triplicate, and positive and negative controls were added to each plate. The plates were then incubated for 24 h at 37° C. with 5% CO2 in a humidified atmosphere.
Day 3: The reagent containing the resazurin (CellTiter-Blue, Promega) was diluted in PBS (1:4) and added at 20% (v/v) to each well. The plates were then incubated at 37° C. for 2 h before the fluorescent reduction product was detected.
Media only background values were subtracted before the data was analysed using GraphPad Prism. Compound concentration values were plotted as log values to enable a dose-response curve to be fitted and IC50 values determined (Table 7).
The renal cell toxicity of the additional example compounds was assessed in an in vitro assay using the HK-2 cell as described in the example above.

[19] = Table 4A, different batches of cation-adjusted Muller-Hinton broth
[20] = K. pneumoniae ATCC4352, Table 4A, different batches of cation-adjusted Muller-Hinton broth

## CC(C)C[C@@H]1NC(=O)[C@@H](Cc2ccccc2)NC(=O)[C@H](CCN)NC(=O)[C@@H](NC(=O)[C@H](CCN)NC(=O)[C@@H](NC(=O)CC(N)C2CCCCC2)C(C)O)CCNC(=O)[C@H](C(C)O)NC(=O)[C@H](CCN)NC(=O)[C@H](CCN)NC1=O (stereo partly drawn) [Example 14, [3(R,S)-3-Amino-3-cyclohexanepropanoyl] Polymyxin B Nonapeptide, Sulphate Salt] ({ξβ3hGly(cHex)}-[Thr(3ξ)][Dab][Dab][Dab][dF]L[Dab][Dab][Thr(3ξ)]; lactam 3-C)
[1]
  levels of the renal biomarker NAG in urine compared to Colistin at the same dose regimen: significantly reduced levels
  levels of the renal biomarker albumin in urine compared to Colistin at the same dose regimen: significantly reduced levels
  levels of the renal biomarker cystatin C in urine compared to Colistin at the same dose regimen: significantly reduced levels
[2]; Table 4
  MIC: 0.5 micrograms/mL
[2]; [19]
  MIC: 0.5 micrograms/mL
[3]; Table 4
  MIC: 0.5 micrograms/mL
[3]; [19]
  MIC: 0.5 micrograms/mL
[4]; Table 4
  MIC: 0.06 micrograms/mL
[4]; [19]
  MIC: 0.125 micrograms/mL
[5]; Table 4
  MIC: 0.5 micrograms/mL
[6]; Table 4
  MIC: 0.5 micrograms/mL
[6]; [19]
  MIC: 0.25 micrograms/mL
[7]; P. aeruginosa AATCCRM 9027, Table 4A, different batches of cation-adjusted Muller-Hinton broth
  MIC: 0.125 micrograms/mL
[7]; P. aeruginosa ATCCCRM-9027, Table 4
  MIC: 0.25 micrograms/mL
[8]; Table 4
  MIC: 0.25 micrograms/mL
[8]; [19]
  MIC: 0.5 micrograms/mL
[9]; P. aeruginosa ATCC 9721, Table 4
  MIC: 0.25 micrograms/mL
[9]; P. aeruginosa ATCC9721, Table 4A, different batches of cation-adjusted Muller-Hinton broth
  MIC: 0.25 micrograms/mL
[10]; Table 4
  MIC: 0.25 micrograms/mL
[10]; [19]
  MIC: 0.5 micrograms/mL
[11]; K. pneumoniae ATCC 4352, Table 4
  MIC: 1 micrograms/mL
[11]; [20]
  MIC: 0.5 micrograms/mL
[12]; Table 4
  MIC: 1 micrograms/mL
[12]; [19]
  MIC: >32 micrograms/mL
[13]
  MIC: 0.25 micrograms/mL
[14]; Table 4
  MIC: 0.5 micrograms/mL
[14]; [19]
  MIC: 4 micrograms/mL
[15]; Table 4
  MIC: 0.5 micrograms/mL
[15]; [19]
  MIC: 2 micrograms/mL
[16]
  MIC: 4 micrograms/mL
[17]; Table 4
  MIC: 0.25 micrograms/mL
[17]; [19]
  MIC: 2 micrograms/mL

## CC(C)C[C@@H]1NC(=O)[C@@H](Cc2ccccc2)NC(=O)[C@H](CCN)NC(=O)[C@@H](NC(=O)[C@H](CCN)NC(=O)[C@@H](NC(=O)CCCCCCN)C(C)O)CCNC(=O)[C@H](C(C)O)NC(=O)[C@H](CCN)NC(=O)[C@H](CCN)NC1=O (stereo partly shown) [Example 19, 7-Aminoheptanoyl polymyxin B nonapeptide] (H-[Ahp][Thr(3ξ)][Dab][Dab][Dab][dF]L[Dab][Dab][Thr(3ξ)]; lactam 4-C)
[18]
  IC50 HK-2 cells: 157^c μg/mL
[5]; [19]
  MIC: 16 micrograms/mL
[6]; [19]
  MIC: 0.25 micrograms/mL
[11]; [20]
  MIC: 2 micrograms/mL
[15]; [19]
  MIC: 1 micrograms/mL
